The subject of one data set is HGPS AG11498 cells. The data set can be described thus: Senescence-associated β-galactosidase in HGPS cells. The class given is cell-based, human. How it is done:
(§1) The following KAT and KDAC inhibitors were used in the nuclear shape rescue screen, incubating cells with the molecules for 16 hours: trichostatin A (1 μM), sodium butyrate (5 mM), tubacin (10 μM), SAHA (5 μM), curcumin (10 μM), garcinol (50 μM), anacardic acid (1 μM), MB-3 (5 μM), 4-(4-chlorophenyl)-2-(2-cyclopentylidenehydrazinyl)thiazole (Compound 2) (50 μM), 4-(4-chlorophenyl)-2-(2-cyclopentylidene-1-(prop-2-yn-1-yl)hydrazinyl)thiazole (Compound 3) (50 μM) and cyclopentylidene-[4-(4-cyanophenyl)thiazol-2-yl)hydrazine (Compound 1) (Remodelin) (10 to 50 μM). For HGPS cellular fitness assays, Remodelin was incubated at 1 μM for 1 to 10 days, renewing the medium every 3 days. For long-term senescence assay, cells were kept and passaged in medium containing 1 μM Remodelin or DMSO only for 12 population doublings. Senescence was assessed after 8 days of Remodelin treatment when cells were at Population Doubling 12, and then after several weeks of Remodelin treatment, when cells reached Population Doubling 24 using the Senescence β-Galactosidase Staining Kit #9860 from Cell Signaling. Nocodazole, colchicine and latrunculin A (Sigma-Aldrich) were used at 200 ng/ml, 1 μg/ml and 1 μM respectively. Aphidicolin (Sigma-Aldrich) was used at 5 μg/ml for 16 h. Farnesyltransferase inhibitor FTI-277 was purchased from Tocris Bioscience and used at 5 μM. ATMi (KU55933) and ATRi (ATR-45) were obtained from Tocris Bioscience and from the Ohio State University respectively and used at 10 μM and 500 nM. Pifithrin alpha (Sigma-Aldrich) was used at 10 μM.

For data set [1], the system named is HGPS cells (γH2AX, autophosphorylated ATM). As to the kind of experiment: DNA damage markers in HGPS cells (western blotting, IF). Type of data set: cell-based, human. The settings on record: Remodelin 1 μM. Here is the method: as §1, with “Nocodazole, colchicine and latrunculin A (Sigma-Aldrich) were used at 200 ng/ml, 1 μg/ml and 1 μM respectively. Aphidicolin (Sigma-Aldrich) was used at 5 μg/ml for 16 h. Farnesyltransferase inhibitor FTI-277 was purchased from Tocris Bioscience and used at 5 μM. ATMi (KU55933) and ATRi (ATR-45) were obtained from Tocris Bioscience and from the Ohio State University respectively and used at 10 μM and 500 nM. Pifithrin alpha (Sigma-Aldrich) was used at 10 μM.” left out
Total cell extracts were prepared by scraping cells in SDS lysis buffer (4% SDS, 20% glycerol, and 120 mM Tris-HCl, pH 6.8), boiling for 5 minutes at 95° C., followed by 10 strokes through a 25-gauge needle. […] Detection and quantification was performed with an imager (Odyssey; LI-COR Biosciences). […]
On the technique in general: A western blot detects proteins with antibodies after separation by electrophoresis.

A short description of data set [2]: Pharmacokinetics assay of Remodelin in mice. Type of data set: in vivo. As to conditions: ICR mice; for half-life: read-out: half-life (T½) (converted). Here is the method:
FIG. 17: Pharmacokinetics assay of Remodelin in mice. A) The pharmacokinetics of Remodelin was evaluated in ICR mice following IV at 1 mg/kg and PO at 5 mg/kg dose level. […] B) Details of the results obtained in the curves shown in A).

The test system of data set [3] is main lysine acetyltranferase proteins (KAT). The data set can be described thus: In vitro specificity against lysine acetyltransferases. The class given is biochemical.
The test system of a further data set is Normal fibroblasts. As to the kind of experiment: Microarray gene expression, normal fibroblasts. The class given is cell-based, human. The settings on record: 1 μM, 12 population doublings. Here is the method:
(§2) Normal fibroblasts or HGPS fibroblasts were kept in culture for 12 population doublings with chronic treatment of 1 μM Compound 2 (top panels of FIG. 29) or transfected with siRNA against NAT10 for 3 days (bottom panels of FIG. 29). RNA was extracted and global gene expression was analysed by microarray. Volcano plots show a very high specificity of Compound 2 towards gene expression regulation of HGPS cells, with about 1000 genes affected more than 2 fold, whereas only 24 genes were affected in normal fibroblasts.

A further data set deals with HGPS fibroblasts. The data set can be described thus: Microarray gene expression, HGPS fibroblasts. The class given is cell-based, human. How it is done: as §2
In another data set the test system is Lmna^G609G/G609G mice. As to the kind of experiment: Tubulin acetylation levels in mice. Type of data set: in vivo, mouse. As to conditions: treated Lmna^G609G/G609G mice. How it is done:
As Tubulin is a direct substrate of NAT10, Tubulin acetylation levels in cells derived from HGPS patients (left and bottom panel of FIG. 27) were assessed as well as in Lmna^G609G/G609G mice (right panel of FIG. 27).

A short description of data set [4]: Compound concentration in heart and muscles. The class given is in vivo. As to conditions: mice, end of the 14 days oral treatment. An excerpt: Right panel of FIG. 24: measurement of Compound 2 concentration in heart and muscles of mice treated with the indicated dose, at the end of the 14 days treatment.

Where a name gives a salt, the structure may show the parent alone. Read-outs that look alike come from different tables or passages of the source.

A word on the clearance: it is the volume of plasma or blood freed of the substance per unit of time. High values mean efficient removal, low ones inefficient removal. Usually half-life stands for how long it takes for the measured level to halve. For orientation: Tmax means the time from dosing to the highest level. One may read the bioavailability as dose-corrected exposure relative to a reference, in per cent. Consider `N#Cc1ccc(-c2csc(NN=C3CCCC3)n2)cc1` [Compound 1, 4-(4-Cyanophenyl)-2-(2-cyclopentylidenehydrazinyl)thiazole], for which the “long-term senescence of HGPS cells” value in the data set with HGPS AG11498 cells (1 μM Remodelin, several weeks, 12 cell divisions (PDL 24)) is “prevented HGPS cell senescence even after several weeks of treatment”. The “senescence of HGPS cells (β-galactosidase positive cells)” value with HGPS AG11498 cells (HGPS AG11498, Remodelin 1 μM, Pifithrin alpha 10 μM) was “decreased senescence”. For the same compound, in data set [1], the “steady-state DNA damage markers (γH2AX, autophosphorylated ATM)” value is “decreased steady-state levels of γH2AX and autophosphorylated ATM”. Besides, the Oral exposure (AUC0-∞) in data set [2] (PO 5 mg/kg) was determined as 259 ng·h/mL. In data set [2] (mouse, plasma, IV 1 mg/kg), the clearance was 139 mL/min/kg and the half-life was 54.9 min. For the same compound, in data set [2] (mouse, plasma, PO 5 mg/kg), the Tmax was 15 min and the half-life is 109 min. This compound also had a bioavailability in data set [2] (mouse, plasma, PO 5 mg/kg vs IV 1 mg/kg) of 43.5%. In addition, the Cmax in data set [2] (mouse, plasma, PO 5 mg/kg, read-out: maximum plasma concentration (Cmax)) amounted to 409 ng/mL.
With `Clc1ccc(-c2csc(NN=C3CCCC3)n2)cc1` [Compound 2, 4-(4-Chlorophenyl)-2-(2-cyclopentylidenehydrazinyl)thiazole Hydrochloride Salt], in data set [3], the “inhibition of KAT activity towards histone substrates” value is recorded as “does not inhibit the activity of the main lysine acetyltranferase proteins (KAT)”. Also, the “number of genes affected” value with Normal fibroblasts was 24 genes. Further, the “number of genes affected more than 2 fold” value with HGPS fibroblasts (HGPS fibroblasts, 1 μM, 12 population doublings) was “about 1000 genes”. The “genes misregulated in HGPS that are rescued” value in the data set with HGPS fibroblasts (HGPS vs normal fibroblasts, Venn diagrams) is reported as “about half of the genes that are misregulated in HGPS compared to normal fibroblasts are rescued”. Also, the tubulin acetylation levels entry with Lmna^G609G/G609G mice is “decrease of tubulin acetylation levels”. For the same compound, the “compound concentration in heart and muscles” value in data set [4] was “very high concentration of the compound in both heart and muscles”.

The record behind these values is patent US9809562B2, “NAT10 modulators for treating or preventing laminopathies, aging and cancer” (CAMBRIDGE ENTERPRISE LIMITED, priority 2014, dated 2017).
